# Data: patent US20250109127A1, “METHODS OF USE OF PHENOXYPROPYLAMINE COMPOUNDS TO TREAT DEPRESSION” (Minerva Neurosciences, Inc., priority 2013, published 2025)
# Entries after “also recorded” stand apart in the source; their conditions may differ. Counter-ions that a name gives are not always drawn.
# Experiments:
# 5-HTT = 5-HTT (Homo sapiens, UniProt P31645); experiment: Receptor binding, 5-HTT
# sleep EEG parameters = experiment: Polysomnography / sleep EEG study; format: in vivo, human
# Description: In this study, certain pharmacodynamic sleep parameters predictive of antidepressant activity were monitored and measured. […] Three doses of SON-117 were tested (1 mg, 3 mg, 7.5 mg). […] In an embodiment, SON-117 affected sleep. In an embodiment, SON-117 affected REM sleep.
# […] subjects were tested in a sleep study, where 23 subjects were dosed with SON-117 in amounts of 1 mg up to 7.5 mg; 12 were given a placebo; and 8 were given escitalopram at a dose of 20 mg. Sleep was recorded in individual sound-attenuated and comfortably furnished bedrooms. During bedtime hours subjects were recumbent and the lights are turned off. The polysomnographic montage consisted of 4 EEG channels (C3A2, O1A2, C4A1, and O2A1), bilateral electro-oculograms, and 2 submental electromyograms. The different sleep parameters were derived with the Hypnos software from the visual scoring of the recordings at 30 sec epochs according to Rechtschaffen and Kales (1968) rules. Sleep continuity parameters comprise both sleep initiation and sleep maintenance variables. Sleep architecture parameters, which include REM sleep parameters, comprise stages distribution variables documenting duration and proportion of the different sleep stages and sleep profile variables that provide an outline on the time course of the different sleep stages during the recording period. All night sleep EEG spectral analysis was carried out on the C3-A2 derivation by means a fast Fourrier transform algorithm. Epoch length was 2 seconds at a sampling rate of 256 Hz and truncating error was reduced by applying a Hanning window. Sleep visual scores of each 30-second epoch was synchronised with power density values in order to allow the analysis of power density within in specific period of time such as REM and non REM sleep.
# [1] = Pharmacokinetic study, plasma concentration on day 1 and day 14; format: in vivo; conditions: day 1 and day 14 after dosing with SON-117
# From the text: were examined in pharmacokinetic studies.
# FIG. 34 illustrates the plasma concentration of SON-117 as a function of time on day 1 after dosing with SON-117. FIG. 35 illustrates the plasma concentration of SON-117 as a function of time on day 14 after dosing with SON˜117.
# FIG. 36 illustrates the plasma concentration of the M1 metabolite of SON-117 as a function of time on day 1 after dosing with SON-117. FIG. 37 illustrates the plasma concentration of the M1 metabolite of SON-117 as a function of time on day 14 after dosing with SON-117.
# 5-HT2A = 5-HT2A (Homo sapiens, UniProt P28223); experiment: Receptor binding, 5-HT2A
# subjective sleep = experiment: Leeds Sleep Evaluation Questionnaire (LSEQ); format: in vivo, human; conditions: SON-117 1 mg; after single administration, sustained up to day 16
# 5-HT1A, 5-HTT, 5-HT2A = experiment: Electrophysiological studies; conditions: first 5-HT1A is presynaptic
# 5-HT1A = target: T1, 5-HT1A (Homo sapiens, UniProt P08908); experiment: Receptor binding, 5-HT1A
# T1 sequence (P08908 1-422): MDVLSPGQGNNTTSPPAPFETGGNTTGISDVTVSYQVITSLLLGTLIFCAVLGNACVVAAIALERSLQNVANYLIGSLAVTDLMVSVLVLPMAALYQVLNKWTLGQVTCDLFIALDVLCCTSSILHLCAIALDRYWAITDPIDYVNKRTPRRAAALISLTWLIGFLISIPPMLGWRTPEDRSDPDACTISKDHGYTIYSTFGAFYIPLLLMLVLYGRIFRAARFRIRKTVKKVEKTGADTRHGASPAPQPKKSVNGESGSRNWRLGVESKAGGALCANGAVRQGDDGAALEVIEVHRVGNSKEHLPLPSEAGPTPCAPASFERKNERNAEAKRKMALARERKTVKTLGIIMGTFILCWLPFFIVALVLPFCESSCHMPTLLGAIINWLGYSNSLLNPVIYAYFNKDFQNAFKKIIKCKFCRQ
# Chain of 5-HT2A (P28223 whole entry): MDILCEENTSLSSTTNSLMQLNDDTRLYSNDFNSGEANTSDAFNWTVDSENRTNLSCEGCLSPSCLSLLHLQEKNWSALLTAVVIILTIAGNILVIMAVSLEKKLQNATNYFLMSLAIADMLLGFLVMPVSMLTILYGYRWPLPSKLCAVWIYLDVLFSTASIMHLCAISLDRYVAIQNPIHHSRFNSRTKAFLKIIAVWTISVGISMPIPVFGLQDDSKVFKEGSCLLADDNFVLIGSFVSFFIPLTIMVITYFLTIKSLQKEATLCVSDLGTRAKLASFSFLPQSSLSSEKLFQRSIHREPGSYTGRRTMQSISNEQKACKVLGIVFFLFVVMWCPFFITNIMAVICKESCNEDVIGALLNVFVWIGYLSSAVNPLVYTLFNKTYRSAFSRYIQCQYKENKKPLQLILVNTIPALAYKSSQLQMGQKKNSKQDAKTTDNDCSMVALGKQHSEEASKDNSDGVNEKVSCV
# Chain of 5-HTT (P31645 whole entry, species assumed): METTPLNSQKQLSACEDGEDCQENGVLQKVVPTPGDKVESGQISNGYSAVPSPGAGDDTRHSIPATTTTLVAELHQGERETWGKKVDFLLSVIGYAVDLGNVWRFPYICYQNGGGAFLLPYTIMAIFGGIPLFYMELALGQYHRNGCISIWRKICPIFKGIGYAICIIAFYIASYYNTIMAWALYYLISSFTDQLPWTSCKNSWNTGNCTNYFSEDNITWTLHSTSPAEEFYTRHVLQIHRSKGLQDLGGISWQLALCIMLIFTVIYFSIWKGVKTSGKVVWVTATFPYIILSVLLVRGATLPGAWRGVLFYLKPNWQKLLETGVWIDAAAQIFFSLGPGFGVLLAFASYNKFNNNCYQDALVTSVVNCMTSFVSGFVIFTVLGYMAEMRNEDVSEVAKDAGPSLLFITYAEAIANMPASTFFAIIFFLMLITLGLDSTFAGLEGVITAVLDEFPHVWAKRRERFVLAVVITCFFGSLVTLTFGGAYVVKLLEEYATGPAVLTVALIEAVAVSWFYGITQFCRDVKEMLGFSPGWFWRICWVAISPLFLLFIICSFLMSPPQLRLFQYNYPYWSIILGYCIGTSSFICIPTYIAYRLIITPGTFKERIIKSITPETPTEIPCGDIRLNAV
smiles,measurement,setting,value
"Cc1nnc(-c2cc3c(OC[C@@H](O)CN4CCC(c5ccc(Cl)c(Cl)c5)CC4)cccc3o2)o1 [SON-117, (S)-1-(4-(3,4-dichlorophenyl)piperidino)-3-(2-(5-methyl-1,3,4-oxadiazol-2-yl)benzo(b)furan-4-yloxy)-2-propanol hydrochloride]","affinity, 5-HTT binding",5-HTT,high affinity
same,"effect of discontinuation of dosing on sleep EEG parameters, including REM sleep",sleep EEG parameters; SON-117,no evidence
same,slow wave sleep (SWS),"sleep EEG parameters; SON-117 1 mg, day 1 and day 14, second third of the night, hydrochloride",could increase; also recorded: increased
same,"REM sleep, REM density/activity","sleep EEG parameters; SON-117 repeated dosing, two highest dosages (3 mg, 7.5 mg), particularly 7.5 mg, hydrochloride",could have REM sleep promoting effect; also recorded: increased
same,sleep continuity and sleep architecture parameters,"sleep EEG parameters; SON-117 three doses tested (1, 3, 7.5 mg)",largely not influenced
same,"AUC, dependence on dose",[1],dose-proportional increase
same,"Cmax, dependence on dose",[1],dose-proportional increase
same,"affinity, 5-HT2A receptor binding",5-HT2A,high affinity
same,LSEQ getting to sleep,subjective sleep,easier
same,LSEQ quality of sleep,subjective sleep,improved
same,order of effects in electrophysiological studies,"5-HT1A, 5-HTT, 5-HT2A",5-HT1A>5-HTT>5-HT2A>postsynaptic 5-HT1A
same,"affinity, 5-HT1A receptor binding",5-HT1A,high affinity
